Laboratory results published in ChEMBL document CHEMBL1201862, “PubChem BioAssay data set” (2004).
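Each compound was tested at five concentrations against cells in 96-well plates for 48 hours. Here, GI50 denotes the concentration required for 50% inhibition of growth.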 Active and inactive are the calls of the source. No stated cut-off is given here; in the data, active = GI50 up to about 1.1 µM and inactive = higher.

Experiments:
Assay in all cases: growth of human tumour cells (NCI), 48 h
A549 = test system: A549
CAKI-1 = test system: CAKI-1
CCRF-CEM = test system: CCRF-CEM
HCT-15 = test system: HCT-15
KM12 = test system: KM12
MOLT-4 = test system: MOLT-4
Malme-3M = test system: Malme-3M
OVCAR-4 = test system: OVCAR-4
OVCAR-5 = test system: OVCAR-5
RPMI-8226 = test system: RPMI-8226
RXF 393 = test system: RXF 393
SF-268 = test system: SF-268
SK-MEL-2 = test system: SK-MEL-2
SNB-75 = test system: SNB-75
U-251 = test system: U-251
UO-31 = test system: UO-31
M14 = test system: M14
MDA-MB-435 = test system: MDA-MB-435
T47D = test system: T47D
Hs-578T = test system: Hs-578T

Structure (SMILES)	GI50 (A549)	GI50 (CAKI-1)	GI50 (CCRF-CEM)	GI50 (HCT-15)	GI50 (KM12)	GI50 (MOLT-4)	GI50 (Malme-3M)	GI50 (OVCAR-4)	GI50 (OVCAR-5)	GI50 (RPMI-8226)	GI50 (RXF 393)	GI50 (SF-268)	GI50 (SK-MEL-2)	GI50 (SNB-75)	GI50 (U-251)	GI50 (UO-31)	GI50 (M14)	GI50 (MDA-MB-435)	GI50 (T47D)	GI50 (Hs-578T)
CCCNC1=C(C)C(=O)C2=C(C1=O)[C@H](COC(N)=O)[C@]1(OC)[C@@H]3N[C@@H]3CN21	0.43 µM (active)	4.57 µM (inactive)	3.16 µM (inactive)	4.01 µM	8.85 µM (inactive)	1.05 µM (active)	6.07 µM (inactive)	6.93 µM (inactive)	13.7 µM (inactive)	7.18 µM (inactive)	12 µM (inactive)	4.65 µM (inactive)	9.51 µM (inactive)	1.67 µM (inactive)	2.48 µM (inactive)	20.3 µM (inactive)	–	–	–	–
Cc1ccc(C(C)(C)C[P+](C)(c2ccccc2)c2ccccc2)cc1	11.6 µM (inactive)	23.9 µM (inactive)	9.08 µM (inactive)	99.3 µM	4.71 µM (inactive)	11 µM (inactive)	4.18 µM (inactive)	9.18 µM (inactive)	18.1 µM (inactive)	1.41 µM (inactive)	27.5 µM (inactive)	16.9 µM (inactive)	4.21 µM (inactive)	8.18 µM (inactive)	11.6 µM (inactive)	20.8 µM (inactive)	–	–	–	–
COc1ccc2c(c1)CC[C@@H]1[C@@H]2CC[C@]2(C)C(=O)/C(=C/c3cc(OC)c(OC)c(OC)c3)C[C@@H]12	40.9 µM (inactive)	27.7 µM (inactive)	–	70 µM	29 µM (inactive)	95.9 µM (inactive)	17.8 µM (inactive)	40.4 µM (inactive)	24.4 µM (inactive)	> 100 µM (inactive)	29.6 µM (inactive)	0.0149 µM (active)	19 µM (inactive)	19.4 µM (inactive)	34.8 µM (inactive)	47.2 µM (inactive)	23.2 µM (inactive)	> 100 µM (inactive)	67 µM (inactive)	–
COc1cc(C2SCC(=O)N2c2cc(Cl)c(Cl)cc2Cl)cc(OC)c1OC (stereo unspecified)	38.5 µM (inactive)	28.7 µM (inactive)	25.4 µM (inactive)	29.7 µM	31.3 µM (inactive)	23.9 µM (inactive)	–	38.6 µM (inactive)	> 100 µM (inactive)	32.4 µM (inactive)	–	90.2 µM (inactive)	63 µM (inactive)	–	77.8 µM (inactive)	34.7 µM (inactive)	54.2 µM (inactive)	30.5 µM (inactive)	–	99.8 µM (inactive)
COc1ccc(C2OC[C@H]3O[C@@H](OCc4ccccc4)[C@H](O)[C@@H](O)[C@@H]3O2)cc1 (stereo partly specified)	> 100 µM (inactive)	> 100 µM (inactive)	52.7 µM (inactive)	> 100 µM	–	41.9 µM (inactive)	–	84.5 µM (inactive)	> 100 µM (inactive)	76.9 µM (inactive)	> 100 µM (inactive)	> 100 µM (inactive)	> 100 µM (inactive)	2.29 µM (inactive)	> 100 µM (inactive)	> 100 µM (inactive)	–	> 100 µM (inactive)	–	55.5 µM (inactive)
CC(=O)Nc1cccc(/N=N/N(C)C)c1	> 100 µM (inactive)	> 100 µM (inactive)	> 100 µM (inactive)	> 100 µM	> 100 µM (inactive)	> 100 µM (inactive)	> 100 µM (inactive)	> 100 µM (inactive)	> 100 µM (inactive)	> 100 µM (inactive)	> 100 µM (inactive)	> 100 µM (inactive)	> 100 µM (inactive)	> 49.3 µM (inactive)	> 100 µM (inactive)	> 100 µM (inactive)	–	–	–	–
CN1CCOC(c2ccc(Cl)cc2)O1 (stereo unspecified)	> 100 µM (inactive)	> 100 µM (inactive)	> 100 µM (inactive)	> 100 µM	> 100 µM (inactive)	> 100 µM (inactive)	> 100 µM (inactive)	> 100 µM (inactive)	> 100 µM (inactive)	–	> 100 µM (inactive)	> 100 µM (inactive)	> 100 µM (inactive)	> 100 µM (inactive)	> 100 µM (inactive)	> 100 µM (inactive)	> 100 µM (inactive)	> 100 µM (inactive)	–	–
COc1cccc(NC(=O)CC(=O)N2N=C(N(CCC#N)c3ccccc3C)CC2c2ccccc2)c1 (stereo unspecified)	> 100 µM (inactive)	> 100 µM (inactive)	> 100 µM (inactive)	> 100 µM	> 100 µM (inactive)	> 100 µM (inactive)	> 100 µM (inactive)	> 100 µM (inactive)	> 100 µM (inactive)	> 100 µM (inactive)	> 100 µM (inactive)	> 100 µM (inactive)	> 100 µM (inactive)	> 100 µM (inactive)	> 100 µM (inactive)	> 100 µM (inactive)	> 100 µM (inactive)	–	–	–
CC(=O)N(C)C=C1C(=O)N(C)C(=O)N(C)C1=O	> 100 µM (inactive)	> 100 µM (inactive)	> 100 µM (inactive)	> 100 µM	> 100 µM (inactive)	> 100 µM (inactive)	> 100 µM (inactive)	> 100 µM (inactive)	> 100 µM (inactive)	> 100 µM (inactive)	> 100 µM (inactive)	–	> 100 µM (inactive)	> 100 µM (inactive)	> 100 µM (inactive)	> 100 µM (inactive)	> 100 µM (inactive)	–	–	–
COc1cc([C@@H]2c3cc4c(cc3[C@@H](/N=C/c3ccc(C(=O)O[C@@H](C(=O)O[C@H]5C[C@@]6(O)[C@@H](OC(=O)c7ccccc7)[C@@H]7[C@]8(OC(C)=O)CO[C@@H]8C[C@H](O)[C@@]7(C)C(=O)[C@H](OC(C)=O)C(=C5C)C6(C)C)[C@@H](NC(=O)c5ccccc5)c5ccccc5)cc3)[C@H]3COC(=O)[C@H]23)OCO4)cc(OC)c1O	0.0266 µM (active)	6.31 µM (inactive)	0.0118 µM (active)	13.3 µM	0.0094 µM (active)	0.018 µM (active)	–	–	0.0312 µM (active)	< 0.005 µM (active)	0.0333 µM (active)	0.0703 µM (active)	0.0335 µM (active)	< 0.005 µM (active)	0.0154 µM (active)	–	0.022 µM (active)	< 0.005 µM (active)	–	0.0459 µM (active)
CCCC(O)C(NC(=O)CCl)C(=O)O (stereo unspecified)	> 100 µM (inactive)	> 100 µM (inactive)	> 100 µM (inactive)	> 100 µM	> 100 µM (inactive)	> 100 µM (inactive)	> 100 µM (inactive)	> 100 µM (inactive)	> 100 µM (inactive)	> 100 µM (inactive)	> 100 µM (inactive)	> 100 µM (inactive)	> 100 µM (inactive)	> 100 µM (inactive)	> 100 µM (inactive)	> 100 µM (inactive)	–	–	–	–
C[C@]12C/C(=C/O)C(=O)C(O)=C1CC[C@@H]1C2CC[C@@]2(C)C1CC[C@@H]2O (stereo partly specified)	57.8 µM (inactive)	26.1 µM (inactive)	18.4 µM (inactive)	21.5 µM	25.6 µM (inactive)	26.4 µM (inactive)	20.8 µM (inactive)	23.9 µM (inactive)	21 µM (inactive)	17.6 µM (inactive)	20.7 µM (inactive)	24.5 µM (inactive)	19.9 µM (inactive)	20.4 µM (inactive)	> 10 µM (inactive)	16.3 µM (inactive)	17.9 µM (inactive)	–	–	–
CNC1(c2cc3ccccc3s2)CCCCC1	48.1 µM (inactive)	42.1 µM (inactive)	< 0.01 µM (active)	31.8 µM	17.9 µM (inactive)	42.2 µM (inactive)	–	27.7 µM (inactive)	20.5 µM (inactive)	–	23.4 µM (inactive)	14.2 µM (inactive)	–	21.5 µM (inactive)	17.8 µM (inactive)	46.9 µM (inactive)	18 µM (inactive)	16.8 µM (inactive)	–	–
O=C1CC2(CCC3=C(O2)c2ccccc2NC(=O)C3)C(=O)c2ccccc2N1 (stereo unspecified)	> 100 µM (inactive)	–	> 100 µM (inactive)	> 100 µM	> 100 µM (inactive)	> 100 µM (inactive)	> 100 µM (inactive)	> 100 µM (inactive)	> 100 µM (inactive)	87.1 µM (inactive)	> 100 µM (inactive)	> 100 µM (inactive)	> 100 µM (inactive)	22.2 µM (inactive)	> 100 µM (inactive)	41.9 µM (inactive)	> 100 µM (inactive)	–	–	–
Cc1cccc(=O)c([O-])c1.Cc1cccc(=O)c([O-])c1.[Bi+3].[Cl-]	12.9 µM (inactive)	15.5 µM (inactive)	2.18 µM (inactive)	4.84 µM	11.6 µM (inactive)	5.12 µM (inactive)	11.9 µM (inactive)	6.07 µM (inactive)	14.9 µM (inactive)	3.42 µM (inactive)	8.39 µM (inactive)	6.61 µM (inactive)	16.8 µM (inactive)	10 µM (inactive)	11.5 µM (inactive)	11.5 µM (inactive)	7.55 µM (inactive)	–	–	–
COc1ccc(OC)c(CC(C)N)c1 (stereo unspecified)	> 100 µM (inactive)	> 100 µM (inactive)	> 100 µM (inactive)	> 100 µM	> 100 µM (inactive)	> 100 µM (inactive)	> 100 µM (inactive)	> 100 µM (inactive)	–	> 100 µM (inactive)	> 100 µM (inactive)	> 100 µM (inactive)	> 100 µM (inactive)	> 100 µM (inactive)	> 100 µM (inactive)	> 100 µM (inactive)	> 100 µM (inactive)	–	–	–
